Patent publication US20080280879A1, “SUBSTITUTED HETEROCYCLIC DERIVATIVES AND THEIR PHARMACEUTICAL USE AND COMPOSITIONS” (priority 2007, published 2008)
Converted amounts (≈) assume the structure as drawn.

Experiments:
Format in all cases: cell-based, Staphylococcus aureus
[1] = system: Staph aureus 1095 MRSA; test: MIC, microtiter broth dilution (CLSI M7-A7), Assay 1, Table 12 column A, no serum; details: Assay 1, no serum; for MIC: Staphylococcus aureus, MRSA
Method: (§1) The assays described herein include a panel of bacterial isolates of Staphylococcus aureus. Assay 1 comprises the strains noted in Columns A through E, and Assay 2 comprises the strains noted in Columns F through H. The assays are performed in microtiter trays according to Methods for Dilution Antimicrobial Susceptibility Tests for Bacteria that Grow Aerobically; Approved Standard-7th edition (M7-A7) and interpreted according to the Performance Standards for Antimicrobial Susceptibility Testing; 16th Informational Supplement (M100-S16) published by Clinical Laboratory Standards Institute (CLSI). The antibacterial activity is presented in the form of a minimum inhibitory concentration (MIC) value in μg/ml format. The MIC value represents the lowest concentration of drug measured which prevented macroscopically visible growth under the conditions and specific doses tested. The compounds were initially dissolved in DMSO as 30 mM stocks and diluted accordingly to adjust to a concentration of 10 mg/ml or the compounds were dissolved in DMSO at a concentration of 10 mg/ml. For assessment of activity in the presence of human serum, S. aureus 1146 and S. aureus 1031 were inoculated into Mueller-Hinton Broth with 50% pooled inactivated human serum. In some cases, compounds were tested more than once in a particular assay. Where noted, the MIC value shown in Table 12 represents the geometric mean of the data from multiple runs.
(§2) It should be understood that the data in columns A-H represents MIC data in μg/ml and the notation “<=” means ‘less than or equal to’.

[2] = system: Staph aureus 1146; test: MIC, microtiter broth dilution (CLSI M7-A7), Assay 1, Table 12 column B, no serum; details: for MIC: Staphylococcus aureus, 1146, Staph aureus 1146, Assay 1, no serum; for MIC, column B: Staph aureus 1146, Assay 1, no serum
Method: as §1, §2

[3] = system: Staph aureus 1146; test: MIC in Mueller-Hinton Broth with 50% pooled inactivated human serum, Assay 1, Table 12; details: for MIC: Staphylococcus aureus, 1146, Staph aureus 1146, Assay 1, 50% human serum, read-out: MIC, column C; for MIC, column C: Staph aureus 1146, Assay 1, 50% human serum
Method: as §1, §2

[4] = system: Staph aureus 2811; test: MIC, microtiter broth dilution (CLSI M7-A7), Assay 1, Table 12 column D, no serum; details: for MIC: Staphylococcus aureus, 2811, Staph aureus 2811, Assay 1, no serum; for MIC, column D: Staph aureus 2811, Assay 1, no serum
Method: as §1, §2

[5] = system: Staph aureus 2812; test: MIC, microtiter broth dilution (CLSI M7-A7), Assay 1, Table 12 column E, no serum; details: for MIC: Staphylococcus aureus, 2812, Staph aureus 2812, Assay 1, no serum; for MIC, column E: Staph aureus 2812, Assay 1, no serum
Method: as §1, §2

SMILES | MIC [1] [µg/mL] | MIC [2] [µg/mL] | MIC [3] [µg/mL] | MIC [4] [µg/mL] | MIC [5] [µg/mL] | MIC, column B [2] [µg/mL] | MIC, column C [3] [µg/mL] | MIC, column D [4] [µg/mL] | MIC, column E [5] [µg/mL] | MIC, column A [1] [µg/mL]
COc1ccc2nccc(C(O)CC[C@@H]3CCN(C4CC(c5nc(C6CC6)no5)C4)C[C@@H]3C(=O)O)c2c1 (stereo partly drawn) [Example 165, (3R,4R)-1-[3-(3-cyclopropyl-1,2,4-oxadiazol-5-yl)cyclobutyl]-4-[3-hydroxy-3-(6-methoxyquinolin-4-yl)propyl]piperidine-3-carboxylic acid] | > 64 | 32 (≈ 63.2 µM) | > 64 | 32 (≈ 63.2 µM) | 64 (≈ 126 µM) | – | – | – | – | –
COc1ccc2nccc([C@@H](O)CNC3CCN([C@H]4C[C@@H](c5ccccc5)C4)CC3C(=O)O)c2c1 (stereo partly drawn) [Example 123, 4-{[(2R)-2-hydroxy-2-(6-methoxyquinolin-4-yl)ethyl]amino}-1-(cis-3-phenylcyclobutyl)piperidine-3-carboxylic acid] | 32 (≈ 67.3 µM) | 16 (≈ 33.6 µM) | 32 (≈ 67.3 µM) | 16 (≈ 33.6 µM) | 32 (≈ 67.3 µM) | – | – | – | – | –
COc1ccc2ncc(F)c(C(O)CC[C@@H]3CCN(C4CC(c5c(F)cccc5F)C4)C[C@@H]3C(=O)O)c2c1 (single isomer, unassigned) [Example 18] | ≤ 0.0625 | ≤ 0.0625 | 0.25 (≈ 0.473 µM) | ≤ 0.0625 | ≤ 0.0625 | – | – | – | – | –
COc1ccc2nccc(C(O)CC[C@@H]3CCN(C4CC(c5c(F)cccc5F)C4)C[C@@H]3C(=O)O)c2c1 (single isomer, unassigned) [Example 27] | ≤ 0.0625 | ≤ 0.125 | 0.353 (≈ 0.692 µM) | ≤ 0.0625 | ≤ 0.0625 | – | – | – | – | –
COc1ccc2nccc([C@@H](O)CC[C@@H]3CCN(C4CC(c5cccc(F)c5C)C4)C[C@@H]3C(=O)O)c2c1 (stereo partly drawn) [Example 57, (3R,4R)-1-[3-(3-fluoro-2-methylphenyl)cyclobutyl]-4-[(3S)-3-hydroxy-3-(6-methoxyquinolin-4-yl)propyl]piperidine-3-carboxylic acid] | 0.5 (≈ 0.987 µM) | 0.25 (≈ 0.493 µM) | 8 (≈ 15.8 µM) | 0.25 (≈ 0.493 µM) | 0.25 (≈ 0.493 µM) | – | – | – | – | –
COc1ccc2nccc(C(CC[C@@H]3CCN(C4CC(c5ccccc5)C4)C[C@@H]3C(=O)O)OC)c2c1 (stereo partly drawn) [Example 10, (3R,4R)-4-[3-methoxy-3-(6-methoxyquinolin-4-yl)propyl]-1-(3-phenylcyclobutyl)piperidine-3-carboxylic acid] | 1 (≈ 2.05 µM) | – | – | – | – | 0.5 (≈ 1.02 µM) | 16 (≈ 32.7 µM) | 0.5 (≈ 1.02 µM) | 0.5 (≈ 1.02 µM) | –
COc1ccc2ncc(Cl)c(CCCC3(C(=O)O)CCN(C4CN(c5ccccn5)C4)CC3)c2c1 [Example 126, 4-(3-(3-chloro-6-methoxyquinolin-4-yl)propyl)-1-(1-(pyridin-2-yl)azetidin-3-yl)piperidine-4-carboxylic add] | – | – | – | – | – | 8 (≈ 16.2 µM) | >64 | 2 (≈ 4.04 µM) | 4 (≈ 8.08 µM) | >64
COc1ccc2ncc(F)c(CCCC3(C(=O)O)CCN(C4CC(c5ccccc5)C4)CC3)c2c1 (stereo not drawn) [Example 23, 4-[3-(3-fluoro-6-methoxyquinolin-4-yl)propyl]-1-(3-phenylcyclobutyl)piperidine-4-carboxylic acid] | ≤ 0.0625 | ≤ 0.0625 | > 64 | ≤ 0.0625 | ≤ 0.0625 | – | – | – | – | –
COc1ccc2nccc([C@@H](O)CC[C@@H]3CCN(C4CC(c5cccc(F)c5)C4)C[C@@H]3C(=O)O)c2c1 (stereo partly drawn) [Example 92, (3R,4R)-1-[3-(3-fluorophenyl)cyclobutyl]-4-[(3S)-3-hydroxy-3-(6-methoxyquinolin-4-yl)propyl]piperidine-3-carboxylic acid] | 0.125 (≈ 0.254 µM) | ≤ 0.0625 | 0.5 (≈ 1.02 µM) | ≤ 0.0625 | ≤ 0.0625 | – | – | – | – | –
COc1ccc2ncc(F)c(C(O)CC[C@@H]3CCN(C4CC(c5ccccc5)C4)C[C@@H]3C(=O)O)c2c1 (mixture of isomers) [Example 14, (3R,4R)-4-[3-(3-fluoro-6-methoxyquinolin-4-yl)-3-hydroxypropyl]-1-(3-phenylcyclobutyl)piperidine-3-carboxylic acid] | ≤ 0.0947 | 0.158 | ≤ 0.379 | ≤ 0.0947 | ≤ 0.0947 | – | – | – | – | –
COc1ccc2ncc(F)c(CCCC3(C(=O)O)CCN(C4CC(c5ccccc5)C4)CC3)c2n1 (stereo not drawn) [Example 106, 4-(3-(3-fluoro-6-methoxy-1,5-naphthyridin-4-yl)propyl)-1-(3-phenylcyclobutyl)piperidine-4-carboxylic acid] | ≤ 0.0625 | ≤ 0.0625 | 32 (≈ 67 µM) | ≤ 0.0625 | ≤ 0.0625 | – | – | – | – | –
COc1ccc2ncc(F)c(C(O)CC[C@@H]3CCN(C4CC(c5cc(F)cc(F)c5)C4)C[C@@H]3C(=O)O)c2n1 (stereo partly drawn) [Example 222, (3R,4R)-1-[3-(3,5-difluorophenyl)cyclobutyl]-4-[3-(3-fluoro-6-methoxy-1,5-naphthyridin-4-yl)-3-hydroxypropyl]piperidine-3-carboxylic acid] | 0.25 (≈ 0.472 µM) | < 0.0625 | 2 (≈ 3.78 µM) | < 0.0625 | < 0.0625 | – | – | – | – | –
COc1ccc2nccc(C(O)CC[C@@H]3CCN(C4CC(c5ccccc5)C4)CC3(C)C(=O)O)c2c1 (stereo partly drawn) [Example 12, (4R)-4-[3-hydroxy-3-(6-methoxyquinolin-4-yl)propyl]-3-methyl-1-(3-phenylcyclobutyl) piperidine-3-carboxylic acid] | 4 (≈ 8.19 µM) | 2 (≈ 4.09 µM) | – | 2 (≈ 4.09 µM) | 2 (≈ 4.09 µM) | – | 8 (≈ 16.4 µM) | – | – | –
COc1ccc2nccc(C(O)CC[C@@H]3CCN(C4CC(C5CCCC5)C4)C[C@@H]3C(=O)O)c2c1 (stereo partly drawn) [Example 45, (3R,4R)-1-(3-cyclopentylcyclobutyl)-4-[3-hydroxy-3-(6-methoxyquinolin-4-yl)propyl]piperidine-3-carboxylic acid] | ≤ 0.125 | ≤ 0.0884 | 0.353 (≈ 0.758 µM) | ≤ 0.0884 | ≤ 0.0884 | – | – | – | – | –
COc1ccc2nccc([C@@H](O)CC[C@@H]3CCN(C4CC(c5c(F)ccc(Cl)c5F)C4)C[C@@H]3C(=O)O)c2c1 (stereo partly drawn) [Example 68, (3R,4R)-1-[3-(3-chloro-2,6-difluorophenyl)cyclobutyl]-4-[(3S)-3-hydroxy-3-(6-methoxyquinolin-4-yl)propyl]piperidine-3-carboxylic acid] | 0.25 (≈ 0.459 µM) | ≤ 0.0625 | 4 (≈ 7.34 µM) | ≤ 0.0625 | ≤ 0.0625 | – | – | – | – | –
O=C(O)[C@H]1CN(C2CC(c3ccccc3)C2)CC[C@H]1CCC(O)c1ccnc2ccc(OC(F)F)cc12 (stereo partly drawn) [Example 143] | – | – | – | – | – | 0.5 (≈ 0.979 µM) | 2 (≈ 3.92 µM) | 0.5 (≈ 0.979 µM) | 1 (≈ 1.96 µM) | 1 (≈ 1.96 µM)
COc1ccc2ncc(Cl)c(C(O)CC[C@@H]3CCN(C4CC(c5c(F)cccc5F)C4)C[C@@H]3C(=O)O)c2c1 (stereo partly drawn) [Example 213, (3R,4R)-4-[3-(3-chloro-6-methoxyquinolin-4-yl)-3-hydroxypropyl]-1-[3-(2,6-difluorophenyl)cyclobutyl]piperidine-3-carboxylic acid] | – | – | – | – | – | <0.0625 | 0.500 (≈ 0.917 µM) | <0.0625 | <0.0625 | <0.0625
COc1ccc2nccc([C@@H](O)CC[C@@H]3CCN(C4CC(c5ccc(C(F)(F)F)cc5F)C4)C[C@@H]3C(=O)O)c2c1 (stereo partly drawn) [Example 194, (3R,4R)-1-{3-[2-fluoro-4-(trifluoromethyl)phenyl]cyclobutyl}-4-[(3S)-3-hydroxy-3-(6-methoxyquinolin-4-yl)propyl]piperidine-3-carboxylic acid] | 4 (≈ 7.14 µM) | 2 (≈ 3.57 µM) | > 64 | 2 (≈ 3.57 µM) | 2 (≈ 3.57 µM) | – | – | – | – | –
COc1ccc2ncc(F)c(C(O)CC[C@@H]3CCN(C4CC(Sc5cc(F)ccc5F)C4)C[C@@H]3C(=O)O)c2c1 (stereo partly drawn) [Example 229, (3R,4R)-1-[3-(2,5-Difluoro-phenylsulfanyl)-cyclobutyl]-4-[(S)-3-(3-fluoro-6-methoxy-quinolin-4-yl)-3-hydroxy-propyl]-piperidine-3-carboxylic acid] | – | – | 32 (≈ 57.1 µM) | – | – | – | – | – | – | –
COc1ccc2nccc([C@@H](O)CC[C@@H]3CCN(C4CC(c5ccc(-c6ccccc6)cc5)C4)C[C@@H]3C(=O)O)c2c1 (stereo partly drawn) [Example 70, (3R,4R)-1-(3-biphenyl-4-ylcyclobutyl)-4-[(3S)-3-hydroxy-3-(6-methoxyquinolin-4-yl)propyl] piperidine-3-carboxylic acid] | – | – | – | – | – | – | – | – | – | >64
COc1ccc2nccc(C(O)CC[C@@H]3CCN(C4CC(c5cccc(F)c5F)C4)C[C@@H]3C(=O)O)c2c1 (stereo partly drawn) [Example 58, (3R,4R)-1-[3-(2,3-difluorophenyl)cyclobutyl]-4-[3-hydroxy-3-(6-methoxyquinolin-4-yl)propyl] piperidine-3-carboxylic acid] | – | – | – | – | – | – | 2 (≈ 3.92 µM) | – | – | –
